The values below come from US20100197585A1, “USE OF A RGD-PEPTIDE AND/OR PARATHYROID HORMONE (1-34) AS ANTI-HIV AGENT” (priority 2007, published 2010).

Where no end group is shown, it is not given here.

Assay [1] has as its system hepatitis B virus (HBV) ayw strain. The experiment in a line: HBV experimental assay system (secreted HBV DNA, TaqMan PCR). To be noted: 10 micrograms per ml; HepG2-2.2.15; six days; HBV DNA by TaqMan PCR. Type of assay: cell-based. From the text: HepG2-2.2.15 is a stable cell line containing the hepatitis B virus (HBV) ayw strain genome (ATCC Cat. No. CRL-11997). Antiviral compounds blocking any late step of viral replication such as transcription, translation, pregenome encapsidation, reverse transcription, particle assembly and release can be identified and characterized using this cell line. In this assay, an active compound will reduce the production of secreted HBV from cells, measured by utilizing real time quantitative PCR (TaqMan) assay to directly and accurately measure HBV DNA copies.
HepG2-2.2.15 cells were plated in 96-well microtiter plates. After 16-24 hours the confluent monolayer of HepG2-2.2.15 cells was washed and the medium was replaced with complete medium containing test peptides—10 micrograms per ml—in duplicate. […] Six days following the initial administration of the peptides, the cell culture supernatants was collected, treated with pronase and DNAse and then used in a real-time quantitative TaqMan PCR assay. The PCR-amplified HBV DNA was detected in real-time by monitoring increases in fluorescence signals that result from the exonucleolytic degradation of a quenched fluorescence probe molecule that hybridizes to the amplified HBV DNA. […] Antiviral activity was calculated from the reduction in HBV DNA levels (% virus control). […]
(In general: Real-time PCR tracks product formation cycle by cycle.)

The test system of a further assay is murine spleen cells. As to the kind of experiment: Th1/Th2 cytokine profiling assay. Type of assay: cell-based, Balb/c mice. To be noted: 10 micrograms per ml; Ovalbumin restimulation; 72 hours.
Another assay deals with HCMV strain AD169. The experiment in a line: HCMV plaque formation assay in MRC-5 cells. To be noted: for inhibition of HCMV plaque formation as compared to the virus control: 10 micrograms per ml, 7-10 days.
The test system of a further assay is HUVEC. As to the kind of experiment: Endothelial tube formation assay. To be noted: 10 micrograms per ml, 20 hours. It is filed as cell-based, human.
In a further assay the test system is HIV-1IIIB. The experiment in a line: HIV-1 antiviral assay (cytopathic effect) in CEM-SS cells. To be noted: for reduction of the cytopathic effect (CPE) in HIV-1 infected CEM-SS cells: 10 micrograms per ml, HIV-1IIIB, 6 days post-infection, MTS; for antiviral activity of positive control compounds (HIV-1): CEM-SS cells. For orientation: Damage to the host cells serves as the signal in cytopathic effect assays.

For the next assay, the system named is Streptococcus pneumoniae. As to the kind of experiment: Streptococcus pneumoniae assay. To be noted: 10 micrograms per ml; 5x10^5 CFU/mL.
A further assay relates to Human A549 cells. As to the kind of experiment: Apoptosis prevention assay (C2 ceramide, Annexin-5). Type of assay: cell-based. To be noted: 10 micrograms per ml, 30 min pretreatment.
The subject of assay [2] is Primary Human endothelial cells (HUVEC). The experiment in a line: Endothelial cell migration assay. It is filed as cell-based. To be noted: 10 micrograms per ml, 22 hours.

Turning to “Gly-Arg-Gly-Asp-Asn-Pro-OH (GRGDNP-OH) [Peptide 1]”, the “inhibition of HBV replication as compared to the virus control infection” value in assay [1] was 36.4%. In the assay with murine spleen cells, the “change of the production of IL-5 in murine spleen cells” value was “did not significantly change”, the “decrease of the production of IFN-γ in murine spleen cells” value is listed as “did not significantly change”, the “increase of the production of IL-2 in murine spleen cells” value was 58.8% and the “increase of the production of IL-4 in murine spleen cells” value was found to be 55.6%. In the assay with murine spleen cells, the “induction of the production of TNF-alpha in murine spleen cells” value is reported as 23.7%. In addition, in the assay with HCMV strain AD169, the “inhibition of HCMV plaque formation as compared to the virus control” value is on record as “did not inhibit”. The “inhibition of the tube formation of human endothelial cells” value with HUVEC is given as “no effect”. Further, in the assay with HIV-1IIIB, the “reduction of the cytopathic effect (CPE) in HIV-1 infected CEM-SS cells” value came to 100%. In the assay on Streptococcus pneumoniae, the “inhibition of the growth of Streptococcus pneumoniae” value is recorded as 100%. Besides, the “reduction of the ceramide-induced apoptosis on human lung cells” value with Human A549 cells is on record as “did not reduce”.
In the case of `Cc1cn([C@H]2C[C@H](N=[N+]=[N-])[C@@H](CO)O2)c(=O)[nH]c1=O` [AZT, zidovudine, reference compound], the “antiviral activity of positive control compounds (HIV-1)” value in the assay on HIV-1IIIB is recorded as “expected levels of antiviral activity”.
As to `CC[C@H](C)[C@H](NC(=O)[C@H](CCC(=O)O)NC(=O)[C@H](CO)NC(=O)[C@@H](NC(=O)[C@@H](N)CO)C(C)C)C(=O)N[C@@H](CCC(N)=O)C(=O)N[C@@H](CC(C)C)C(=O)N[C@@H](CCSC)C(=O)N[C@@H](Cc1cnc[nH]1)C(=O)N[C@@H](CC(N)=O)C(=O)N[C@@H](CC(C)C)C(=O)NCC(=O)N[C@@H](CCCCN)C(=O)N[C@@H](Cc1cnc[nH]1)C(=O)N[C@@H](CC(C)C)C(=O)N[C@@H](CC(N)=O)C(=O)N[C@@H](CO)C(=O)N[C@@H](CCSC)C(=O)N[C@@H](CCC(=O)O)C(=O)N[C@@H](CCCN=C(N)N)C(=O)N[C@H](C(=O)N[C@@H](CCC(=O)O)C(=O)N[C@@H](Cc1c[nH]c2ccccc12)C(=O)N[C@@H](CC(C)C)C(=O)N[C@@H](CCCN=C(N)N)C(=O)N[C@@H](CCCCN)C(=O)N[C@@H](CCCCN)C(=O)N[C@@H](CC(C)C)C(=O)N[C@@H](CCC(N)=O)C(=O)N[C@@H](CC(=O)O)C(=O)N[C@H](C(=O)N[C@@H](Cc1cnc[nH]1)C(=O)N[C@@H](CC(N)=O)C(=O)N[C@@H](Cc1ccccc1)C(=O)O)C(C)C)C(C)C` [Peptide 2], the “inhibition of HBV replication as compared to the virus control infection” value in assay [1] amounted to 0%. In the assay on murine spleen cells, the “change of the production of IL-5 in murine spleen cells” value is “did not significantly change”, the “decrease of the production of IFN-γ in murine spleen cells” value was determined as 31.4%, the “increase of the production of IL-2 in murine spleen cells” value is 80.4% and the “increase of the production of IL-4 in murine spleen cells” value was 35.2%. In the assay on murine spleen cells, the “induction of the production of TNF-alpha in murine spleen cells” value was “did not significantly change”. Moreover, in assay [2], the “inhibition of the migration of human endothelial cells” value is “no effect”. Besides, the “inhibition of HCMV plaque formation as compared to the virus control” value with HCMV strain AD169 is “did not inhibit”. The “inhibition of the tube formation of human endothelial cells” value in the assay with HUVEC is 28%. Further, the “reduction of the cytopathic effect (CPE) in HIV-1 infected CEM-SS cells” value in the assay on HIV-1IIIB came to 18.1%. Moreover, the “inhibition of the growth of Streptococcus pneumoniae” value in the assay with Streptococcus pneumoniae was “no effect”. In the assay with Human A549 cells, the “reduction of the ceramide-induced apoptosis on human lung cells” value is 23.9%.
Consider `Nc1nc(O)c2ncn(COC(CO)CO)c2n1` [Ganciclovir, reference compound], for which, in the assay on HCMV strain AD169 (positive control), the “antiviral activity of positive control compound (HCMV)” value is “expected levels of antiviral activity”.
`CC(C)(C)NC(=O)[C@@H]1CN(Cc2cccnc2)CCN1C[C@@H](O)C[C@@H](Cc1ccccc1)C(=O)N[C@H]1c2ccccc2C[C@H]1O` [indinavir, reference compound]: in the assay with HIV-1IIIB, the “antiviral activity of positive control compounds (HIV-1)” value is “expected levels of antiviral activity”.
